Test results: US9642825B2, “Bio-available N-acetyl creatine species and compositions thereof” (4141 HOLDINGS, LLC, priority 2014, dated 2017)

Assays:
[1] = Dissolution time of 1 gram in 0.1N HCl (pH 1.2); format: physicochemical; details: 1.000 Gram in 900 ml 0.1N HCl in Water, pH = 1.2, 73 C., 75 RPM
[2] = Dissolution time of 1 gram in distilled water at room temperature; format: physicochemical; details: 75 RPM
[3] = Chemical stability in aqueous media (conversion to creatinine); format: physicochemical
Description: As may be seen, 1 gram of N-acetyl creatine dissolves faster than other creatine derivatives, except creatine ethyl ester HCl, designated Creatine EE Hcl—(High Creatine Conversion) in FIG. 1. However, this shorter dissolution time may be deceiving. […] Instead, Creatine ethyl ester HCl decomposes into creatinine in a matter of 2 to 3 minutes. Creatinine is an excretory byproduct produced from the breakdown of creatine phosphate and offers none of the numerous benefits of creatine. In other words, Creatine ethyl ester HCl is unstable and its rapid conversion to creatinine makes it ineffective in delivering bioavailable creatine to the body.

[4] = Solubility in water; format: physicochemical
[5] = system: muscle strength and weightlifting performance; details: cited from earlier work
[6] = system: person with myasthenia gravis; details: five grams daily, resistance training 3 times per week for 15 weeks; cited from earlier work
[7] = system: myostatin; details: cited from earlier work
[8] = system: human fibroblasts; details: cited from earlier work
[9] = 1.000 Gram in 900 ml Distilled Water, creatine types
[10] = 1.000 g in 900 ml Distilled Water, L-leucine versus N-acetyl L-leucine
[11] = creatine supplementation plus resistance training
[12] = versus placebo ingestion during resistance training

Molecule: Creatine Taurinate
- Time (Minutes) to dissolve [1]: 10.30 min
- Time (Minutes) to dissolve [2, 9]: 15.85 min

Molecule: CCOC(=O)CN(C)C(=N)N.Cl [Creatine ethyl ester HCl]
- Time (Minutes) to dissolve [1]: 0.95 min
- Time (Minutes) to dissolve [2, 9]: 1.68 min
- stability in solution (in words) [3]: unstable

Molecule: CN(CC(=O)N[C@@H](CCC(N)=O)C(=O)O)C(=N)N [Creatyl-L-Glutamine]
- Time (Minutes) to dissolve [1]: 6.33 min
- Time (Minutes) to dissolve [2, 9]: 25.02 min

Molecule: CC(C)C[C@H](N)C(=O)O [Leucine, L-leucine]
- Time (Minutes) to dissolve [2, 10]: 12.82 min
- solubility in an aqueous medium (in words) ([4]; aqueous medium): very low water solubility
- solubility of free leucine relative to N-acetyl-Leucine ([4]; aqueous medium): ten times greater

Molecule: CN(CC(=O)O)C(=N)N [creatine, 2-(carbamimidoyl-methyl-amino) acetic acid]
- average increase in muscle strength [5, 11]: 20%
- average increase in weightlifting performance (maximal repetitions at a given percent of maximal strength) [5, 11]: 26%
- average increase in muscle strength, greater than following placebo [5, 12]: 8%
- average increase in weightlifting performance, greater than following placebo [5, 12]: 14%
- improved peak strength [6]: up to 37%
- increase in body weight [6]: 7%
- increase in fat free mass [6]: 4%
- myostatin blocked in muscle [7]: 60%

Molecule: CN(CC(=O)O)C(=N)N.O [Creatine Monohydrate]
- Time (Minutes) to dissolve [2, 9]: 14.42 min

Molecule: CC(=O)NC(=N)N(C)CC(=O)O [N-acetyl creatine]
- Time (Minutes) to dissolve [1]: 2.17 min
- Time (Minutes) to dissolve [2, 9]: 3.70 min
- times more soluble than the parent compound creatine [4]: 30 times
- increase of solubility with respect to creatine monohydrate ([4]; water): 30 fold
- solubility in water ([4]; water): 400 grams/1 liter
- stability in solution (in words) [3]: remains stable in solution

Molecule: CN(CC(=O)O)C(=N)N.O=[N+]([O-])O [Creatine Nitrate]
- Time (Minutes) to dissolve [2, 9]: 9.12 min

Molecule: CN(CC(=O)O)C(=N)N.O=C(O)CC(O)(CC(=O)O)C(=O)O [Creatine Citrate]
- Time (Minutes) to dissolve [2, 9]: 10.10 min

Molecule: CCCCCCCCCCCCOC(=O)CN(C)C(=N)N [dodecyl creatine ester]
- increase compared with the endogenous creatine content [8]: 20 fold

Molecule: CC(=O)N[C@@H](CC(C)C)C(=O)O [N-Acetyl Leucine, N-acetyl L-leucine]
- Time (Minutes) to dissolve [2, 10]: 120.17 min
- solubility in an aqueous medium (in words) ([4]; aqueous medium): extremely poor solubility

Molecule: CC(C)C[C@H](NC(=O)CN(C)C(=N)N)C(=O)O [Creatyl-L-Leucine]
- Time (Minutes) to dissolve [1]: 3.08 min
- Time (Minutes) to dissolve [2, 9]: 9.05 min
